The results in this text go back to patent EP4578856A1, “HETEROCYCLIC COMPOUND” (Ubience Inc., priority 2022, dated 2024).

FAK protein, sequence (Q05397 whole entry): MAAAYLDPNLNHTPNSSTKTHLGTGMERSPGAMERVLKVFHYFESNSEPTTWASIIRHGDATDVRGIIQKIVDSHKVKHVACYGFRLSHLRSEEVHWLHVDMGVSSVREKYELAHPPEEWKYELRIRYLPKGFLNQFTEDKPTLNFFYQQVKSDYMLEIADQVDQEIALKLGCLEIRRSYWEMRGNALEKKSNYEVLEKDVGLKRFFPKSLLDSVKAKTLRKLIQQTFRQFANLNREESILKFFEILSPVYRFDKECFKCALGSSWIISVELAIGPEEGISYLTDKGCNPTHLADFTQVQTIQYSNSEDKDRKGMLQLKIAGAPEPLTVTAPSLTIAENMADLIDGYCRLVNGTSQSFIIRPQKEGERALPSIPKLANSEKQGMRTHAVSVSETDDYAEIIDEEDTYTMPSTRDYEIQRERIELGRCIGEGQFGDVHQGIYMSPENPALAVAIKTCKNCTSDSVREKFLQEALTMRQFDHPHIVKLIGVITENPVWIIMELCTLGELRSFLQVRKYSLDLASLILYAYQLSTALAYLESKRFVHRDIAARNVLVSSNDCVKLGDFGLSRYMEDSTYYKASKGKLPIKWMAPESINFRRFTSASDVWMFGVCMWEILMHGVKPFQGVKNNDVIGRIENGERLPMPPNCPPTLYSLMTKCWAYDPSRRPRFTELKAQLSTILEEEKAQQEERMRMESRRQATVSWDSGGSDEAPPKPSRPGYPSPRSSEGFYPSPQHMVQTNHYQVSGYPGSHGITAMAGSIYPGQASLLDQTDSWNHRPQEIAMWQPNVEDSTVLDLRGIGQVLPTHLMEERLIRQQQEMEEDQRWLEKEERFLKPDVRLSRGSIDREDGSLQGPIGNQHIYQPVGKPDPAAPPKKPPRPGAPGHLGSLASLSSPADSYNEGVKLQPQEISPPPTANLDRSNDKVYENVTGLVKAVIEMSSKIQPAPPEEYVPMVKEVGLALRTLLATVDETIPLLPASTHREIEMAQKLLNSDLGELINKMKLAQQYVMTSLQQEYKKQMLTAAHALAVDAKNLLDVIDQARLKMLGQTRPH

The first test addresses FAK protein (Homo sapiens, UniProt Q05397). Kind of test: Degradation inducing activity of FAK protein in PA-1 cells, Western blotting (Simple Western JESS). The test is classed as cell-based. Details: endogenous in cells; host or cells: PA-1 (ATCC CRL-1572). The conditions noted are these: at 10 µM, 24 hours. The method, then:
In vitro degradation inducing activity of FAK protein of compounds of Examples was evaluated by Western Blotting (WB).
By a test compound, 10 mM DMSO solution was prepared, which was used as a 10 µM test compound solution. Further, the solution was diluted 10-fold with DMSO to prepare a 1 mM solution, which was used as a 1 µM test compound solution.
PA-1 cells (ATCC: CRL-1572, Lot: 70055709) were cultured in Eagle's Minimum Essential Medium supplemented with 10% FBS and 1% Penicillin/Streptomycin. The PA-1 cells seeded in a 24 well plate at 200,000 cells/well/1 mL were cultured for 24 hours, and then 1 µL of DMSO or a test compound solution was added thereto and treatment was performed for 24 hours. Cells were harvested and lysed for 20 minutes on ice using RIPA lysis buffer (Sigma, Cat#R0278) supplemented with protease inhibitor cocktail (Sigma, Cat#P8340; Roche, Cat#P11873580001), and phosphatase inhibitor cocktail (Sigma, Cat#P5726, P0044). The lysate was sonicated (15 seconds, amplitude 30%, 1 cycle) and then centrifuged at 12500 rpm for 15 minutes at 4°C. The protein concentration was determined by BCA assay kit (Thermo Fisher Scientific, Cat#23225).
The western blotting was performed using Simple Western JESS (protein simple). A cell lysis sample (protein amount; about 2 µg) was loaded on a plate of Simple Western JESS, and the expression level of […] was detected using a 12-230 kDa Wes Separation Module (Protein simple, Cat#SM-WO04), an Anti-Rabbit Detection Module for Wes (Protein simple, Cat#DM-001), and a Total Protein Detection Module for Wes (Protein simple, Cat#DM-TP01). As the primary antibody, a material obtained by diluting FAK Rabbit mAb (Cell Signaling Technology, Cat#3285) at 1:100 was used, and as the secondary antibody, a material obtained by diluting HRP-labeled anti-rabbit IgG antibody (Cell Signaling Technology, Cat#7074S) at 1:250 was used. The expression level of the target protein was standardized using the total protein amount loaded as a reference. The standardized expression level data of the control (DMSO) was taken as 100%, and the degradation rate (%) was calculated from the average standardized expression level data of the test compounds (compounds of Examples 109 to 128). All analysis steps, such as data detection and analysis, are fully automated.
On the technique in general: A western blot detects proteins with antibodies after separation by electrophoresis.
With “2-(4-((6-(4-Fluorobenzyl)-1-(2-((2R,5R)-2-(methoxymethyl)-5-methylpiperazin-1-yl)acetyl)-3,3-dimethyl-2,3-dihydro-1H-pyrrolo[3,2-b]pyridin-5-yl)methyl)piperazin-1-yl)-N-(4-((4-((3-(methylsulfonyl)benzyl)amino)-5-(trifluoromethyl)pyrimidin-2-yl)amino)phenyl)acetamide [Example 114]”, the “FAK protein degradation rate” value is at least 75%.

As to `C[C@@H]1CN(CC(=O)N2CC(C)(C)c3ncc(Cc4ccc(F)cc4)cc32)[C@@H](CN(C)CCOCCOCC(=O)Nc2ccc(Nc3ncc(C(F)(F)F)c(NCc4cccc(S(C)(=O)=O)c4)n3)cc2)CN1` [Example 110, 2-(2-(2-((((2R,5R)-1-(2-(6-(4-fluorobenzyl)-3,3-dimethyl-2,3-dihydro-1H-pyrrolo[3,2-b]pyridin-1-yl)-2-oxoethyl)-5-methylpiperazin-2-yl)methyl) (methyl)amino)ethoxy)ethoxy)-N-(4-((4-((3-(methylsulfonyl)benzyl)amino)-5-(trifluoromethyl)pyrimidin-2-yl)amino)phenyl)acetamide], the “FAK protein degradation rate” value was at least 75%.

Turning to `C[C@@H]1CN(CC(=O)N2CC(C)(C)c3ncc(Cc4ccc(F)cc4)cc32)[C@@H](CN(C)CCOCCOCCOCCOCC(=O)Nc2ccc(Nc3ncc(C(F)(F)F)c(NCc4cccc(S(C)(=O)=O)c4)n3)cc2)CN1` [Example 112, 1-((2R,5R)-1-(2-(6-(4-Fluorobenzyl)-3,3-dimethyl-2,3-dihydro-1H-pyrrolo[3,2-b]pyridin-1-yl)-2-oxoethyl)-5-methylpiperazin-2-yl)-2-methyl-N-(4-((4-((3-(methylsulfonyl)benzyl)amino)-5-(trifluoromethyl)pyrimidin-2-yl)amino)phenyl)-5,8,11,14-tetraoxa-2-azahexadecan-16-amide], the “FAK protein degradation rate” value is reported as at least 75%.

`COC[C@H]1CN[C@H](C)CN1CC(=O)N1CC(C)(C)c2ncc(Cc3ccccc3OCCN3CCN(CC(=O)Nc4ccc(Nc5ncc(C(F)(F)F)c(NCc6cccc(S(C)(=O)=O)c6)n5)cc4)CC3)cc21` [Example 119, 2-(4-(2-(2-((1-(2-((2R,5R)-2-(Methoxymethyl)-5-methylpiperazin-1-yl)acetyl)-3,3-dimethyl-2,3-dihydro-1H-pyrrolo[3,2-b]pyridin-6-yl)methyl)phenoxy)ethyl)piperazin-1-yl)-N-(4-((4-((3-(methylsulfonyl)benzyl)amino)-5-(trifluoromethyl)pyrimidin-2-yl)amino)phenyl)acetamide]: the “FAK protein degradation rate” value is on record as at least 75%.

For the compound `COC[C@H]1CN[C@H](C)CN1CC(=O)N1CC(C)(C)c2ncc(Cc3cccc(OCCN4CCN(CC(=O)Nc5ccc(Nc6ncc(C(F)(F)F)c(NCc7cccc(S(C)(=O)=O)c7)n6)cc5)CC4)c3)cc21` [Example 124, 2-(4-(2-(3-((1-(2-((2R,5R)-2-(Methoxymethyl)-5-methylpiperazin-1-yl)acetyl)-3,3-dimethyl-2,3-dihydro-1H-pyrrolo[3,2-b]pyridin-6-yl)methyl)phenoxy)ethyl)piperazin-1-yl)-N-(4-((4-((3-(methylsulfonyl)benzyl)amino)-5-(trifluoromethyl)pyrimidin-2-yl)amino)phenyl)acetamide], the “FAK protein degradation rate” value is recorded as at least 75%.

In a further test the target is T1, human ALK kinase (Homo sapiens, UniProt Q9UM73).
T1 construct: GST (N); purchased Carna Biosciences, Inc; host or cells: baculovirus expression system
T1 sequence (Q9UM73 1058-1620): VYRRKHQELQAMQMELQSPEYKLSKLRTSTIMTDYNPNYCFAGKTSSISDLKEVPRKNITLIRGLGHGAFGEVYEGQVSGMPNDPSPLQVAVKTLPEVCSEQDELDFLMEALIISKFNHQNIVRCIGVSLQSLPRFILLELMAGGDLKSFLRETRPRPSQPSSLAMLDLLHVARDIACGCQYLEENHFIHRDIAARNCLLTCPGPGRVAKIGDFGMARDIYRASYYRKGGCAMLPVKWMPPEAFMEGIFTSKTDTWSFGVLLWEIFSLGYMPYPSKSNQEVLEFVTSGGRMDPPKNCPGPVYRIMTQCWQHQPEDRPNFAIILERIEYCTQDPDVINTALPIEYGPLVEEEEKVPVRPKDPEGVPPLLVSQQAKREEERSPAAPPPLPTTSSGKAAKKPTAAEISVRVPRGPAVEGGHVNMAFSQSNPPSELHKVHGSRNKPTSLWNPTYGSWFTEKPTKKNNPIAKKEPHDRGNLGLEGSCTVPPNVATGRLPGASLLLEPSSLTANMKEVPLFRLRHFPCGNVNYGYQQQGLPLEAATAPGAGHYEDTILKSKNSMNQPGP
Put plainly: ALK kinase inhibitory activity, mobility shift assay (MSA, Carna Biosciences). The test is classed as biochemical. The conditions noted are these: inhibition rate at 10 nM. The method, then: The ALK kinase inhibitory activity was measured using a mobility shift assay (MSA) provided by Carna Biosciences, Inc.
The test compound was dissolved in DMSO to prepare a 1 µM solution. The solution was further diluted 25 times with an assay buffer (20 mmol/L HEPES, 0.01%Triton (registered trademark) X-100, 1 mmol/L DTT, pH 7.5) to obtain a test compound solution.
The human ALK kinase was expressed by fusing the cytoplasmic domain (1058 to 1620 amino acids of Accession No. BAG 10812.1) with GST at the N-terminus using the baculovirus expression system. The GST-ALK was purified by glutathione sepharose chromatography. A 4-fold concentration substrate (Srctide, 1000 nmol/L)/ATP (50 µmol/L)/metal solution (Mg, 5 mmol/L) was prepared with kit buffer (20 mmol/L HEPES, 0.01% Triton (registered trademark) X-100, 5 mmol/L DTT, pH 7.5). A 2-fold concentration kinase solution was prepared with assay buffer.
In the same manner as described in Test Example 1, tests and evaluation of inhibitory activity and data analysis were performed.
As a reminder, the inhibition is the share of the control response that was lost under treatment. As for `Cc1cc(Nc2ncc(Cl)c(Nc3ccccc3S(=O)(=O)C(C)C)n2)c(OC(C)C)cc1C1CCN(CC(=O)NCCOCCN(C)C[C@H]2CN[C@H](C)CN2CC(=O)N2CC(C)(C)c3ncc(Cc4ccc(F)cc4)cc32)CC1` [Example 85, 2-(4-(4-((5-Chloro-4-((2-(isopropylsulfonyl)phenyl)amino)pyrimidin-2-yl)amino)-5-isopropoxy-2-methylphenyl)piperidin-1-yl)-N-(2-(2-((((2R,5R)-1-(2-(6-(4-fluorobenzyl)-3,3-dimethyl-2,3-dihydro-1H-pyrrolo[3,2-b]pyridin-1-yl)-2-oxoethyl)-5-methylpiperazin-2-yl)methyl) (methyl)amino)ethoxy)ethyl)acetamide], the inhibition at 0.01 µM lay in the range of 50 to 75%.

Take `Cc1cc(Nc2ncc(Cl)c(Nc3ccccc3S(=O)(=O)C(C)C)n2)c(OC(C)C)cc1C1CCN(CC(=O)NCCOCCOCCOCCOCCOCCN(C)C[C@H]2CN[C@H](C)CN2CC(=O)N2CC(C)(C)c3ncc(Cc4ccc(F)cc4)cc32)CC1` [Example 89, 2-(4-(4-((5-Chloro-4-((2-(isopropylsulfonyl)phenyl)amino)pyrimidin-2-yl)amino)-5-isopropoxy-2-methylphenyl)piperidin-1-yl)-N-(1-((2R,5R)-1-(2-(6-(4-fluorobenzyl)-3,3-dimethyl-2,3-dihydro-1H-pyrrolo[3,2-b]pyridin-1-yl)-2-oxoethyl)-5-methylpiperazin-2-yl)-2-methyl-5,8,11,14,17-pentaoxa-2-azanonadecan-19-yl)acetamide]: the inhibition at 0.01 µM was 50 to 75%.

Take `COC[C@H]1CN[C@H](C)CN1CC(=O)N1CC(C)(C)c2nc(CN(C)CCOCCOCCNC(=O)CN3CCC(c4cc(OC(C)C)c(Nc5ncc(Cl)c(Nc6ccccc6S(=O)(=O)C(C)C)n5)cc4C)CC3)c(Cc3ccc(F)cc3)cc21` [Example 92, 2-(4-(4-((5-Chloro-4-((2-(isopropylsulfonyl)phenyl)amino)pyrimidin-2-yl)amino)-5-isopropoxy-2-methylphenyl)piperidin-1-yl)-N-(2-(2-(2-(((6-(4-fluorobenzyl)-1-(2-((2R,5R)-2-(methoxymethyl)-5-methylpiperazin-1-yl)acetyl)-3,3-dimethyl-2,3-dihydro-1H-pyrrolo[3,2-b]pyridin-5-yl)methyl) (methyl)amino)ethoxy)ethoxy)ethyl) acetamide]: the inhibition at 0.01 µM is at least 75%.

In the case of `COC[C@H]1CN[C@H](C)CN1CC(=O)N1CC(C)(C)c2nc(CN(C)CCOCCOCCOCCOCCOCCNC(=O)CN3CCC(c4cc(OC(C)C)c(Nc5ncc(Cl)c(Nc6ccccc6S(=O)(=O)C(C)C)n5)cc4C)CC3)c(Cc3ccc(F)cc3)cc21` [Example 95, 2-(4-(4-((5-Chloro-4-((2-(isopropylsulfonyl)phenyl)amino)pyrimidin-2-yl)amino)-5-isopropoxy-2-methylphenyl)piperidin-1-yl)-N-(1-(6-(4-fluorobenzyl)-1-(2-((2R,5R)-2-(methoxymethyl)-5-methylpiperazin-1-yl)acetyl)-3,3-dimethyl-2,3-dihydro-1H-pyrrolo[3,2-b]pyridin-5-yl)-2-methyl-5,8,11,14,17-pentaoxa-2-azanonadecan-19-yl)acetamide], the inhibition at 0.01 µM was at least 75%.

On to `COC[C@H]1CN[C@H](C)CN1CC(=O)N1CC(C)(C)c2ncc(Cc3ccccc3OCCOCCOCCOCCOCCNC(=O)CN3CCC(c4cc(OC(C)C)c(Nc5ncc(Cl)c(Nc6ccccc6S(=O)(=O)C(C)C)n5)cc4C)CC3)cc21` [Example 100, 2-(4-(4-((5-Chloro-4-((2-(isopropylsulfonyl)phenyl)amino)pyrimidin-2-yl)amino)-5-isopropoxy-2-methylphenyl)piperidin-1-yl)-N-(14-(2-((1-(2-((2R,5R)-2-(methoxymethyl)-5-methylpiperazin-1-yl)acetyl)-3,3-dimethyl-2,3-dihydro-1H-pyrrolo[3,2-b]pyridin-6-yl)methyl)phenoxy)-3,6,9,12-tetraoxatetradecyl)acetamide], for which the inhibition at 0.01 µM was at least 75%.
